# pIC50: −log10 of the molar value. Like-named read-outs stand apart in the source and are kept apart here.
# What was measured:
# [1] = system: A549 human lung carcinoma cell line; experiment: MTT cytotoxicity assay in A549 cells: IC50 of single agents and combinations with PM01183; assay type: cell-based; settings: Homo sapiens
# Method: (§1) Additional serial dilutions were prepared in serum-free culture medium to achieve a final 4× concentration. Aliquots of 50 μL of each diluted compound were added per well.
# A549 was the human lung carcinoma cell line selected for this assay.
# (§2) a. […] Briefly, cells were harvested and seeded in 96 well microtiter plates at a density of 5,000 cells in 150 μL of culture medium and incubated for 24 hours in drug-free medium before treatment with vehicle alone or test compounds for 72 h.
# (§3) The cytotoxic effect was measured by the MTT reduction assay, in which 3-(4,5-Dimethylthiazol-2-yl)-2,5-diphenyltetrazolium bromide, a tetrazole, which is reduced to purple formazan in the mitochondria of living cells, was used. MTT (50 μL of 1 mg/mL stock solution) was added to the wells and incubated for 8 hours at 37° C. until formazan crystals were formed. After gently removing the culture medium, DMSO was added to dissolve the insoluble purple formazan product into a colored solution. […] Results were expressed as percentage of control cell growth.
# (§4) b. In a second set of assays, A549 human tumor cells were incubated with PM01183 in combination with each of the agents mentioned above.
# (§5) As a visual aid, response values were plotted on a scatter plot with dose ratios given on the x-axis and % response values on the y-axis. […] In cases where response values at the two endpoints were approximately equivalent, points lying above or below this predicted line of additivity could be interpreted as representing antagonistic or synergistic drug interaction, respectively.
# [2] = system: IGROV-1 human ovarian adenocarcinoma cell line; experiment: cells; settings: Homo sapiens, IGROV-1, 72 h
# Method: as §2, §3, §4, §5, §1
# IGROV-1 was the human ovarian adenocarcinoma cell line selected for this assay.
# [3] = system: MDA-MB-231 human breast adenocarcinoma cell line; experiment: cells; settings: Homo sapiens, MDA-MB-231, 72 h
# Method: as §2, §3, §4, §5, §1
# [4] = system: A673 human rhabdomyosarcoma cell line; experiment: cells; settings: Homo sapiens, A673, 72 h
# Method: as §2, §3, §4, §5, §1
# A673 was the human rhabdomyosarcoma cell line selected for this assay.
# [5] = system: HGC-27 human gastric carcinoma cell line; experiment: cells; settings: Homo sapiens, HGC-27, 72 h
# Method: as §2, §3, §4, §5, §1
# HGC-27 was the human gastric carcinoma cell line selected for this assay.
# [6] = system: HepG2 human hepatocellular liver carcinoma cell line; experiment: MTT cytotoxicity assay in HepG2 cells: IC50 of single agents and combinations with PM01183; assay type: cell-based; settings: Homo sapiens
# Method: as §2, §3, §4, §5, §1
# HepG2 was the human hepatocellular liver carcinoma cell line selected for this assay.
# [7] = system: RXF-393 human kidney carcinoma cell line; experiment: cells; settings: Homo sapiens, RXF 393, 72 h
# Method: as §2, §3, §4, §5, §1
# [8] = system: HT-29 human colon adenocarcinoma cell line; experiment: cells; settings: Homo sapiens, HT-29, 72 h
# Method: as §2, §3, §4, §5, §1
# HT-29 was the human colon adenocarcinoma cell line selected for this assay.
# [9] = system: PC-3 human prostate cancer cell line; experiment: cells; settings: Homo sapiens, PC-3, 72 h
# Method: as §2, §3, §4, §5, §1
# PC-3 was the human prostate adenocarcinome cell line selected for this assay.
# A2780 tumors = experiment: Human ovarian tumor xenografts (A2780) in athymic nude mice, tumor volume % T/C; assay type: in vivo
# Method: (§6) Female athymic nude mice (Harlan Laboratories Models, S.L. (Barcelona, Spain) were utilized for all experiments. Animals were housed in individually ventilated cages, up to ten per cage in a 12-hour light-dark cycle at 21-23° C. and 40-60% humidity. The mice were allowed free access to irradiated standard rodent diet and sterilized water. Animals were acclimated for at least 5 days prior to tumor implantation with a tumor cell suspension.
# The formula to calculate volume for a prolate ellipsoid was used to estimate tumor volume (mm^3) from 2-dimensional tumor measurements: Tumor volume (mm^3)=[L×W^2]÷2, where L is the length and it is the longest diameter in mm, and W is the width and it is the shortest diameter in mm of a tumor. Assuming unit density, volume was converted to weight (i.e., 1 mm^3=1 mg). Tumor volume and animal body weights were measured 2-3 times per week starting form the first day of treatment (Day 0).
# PM01183 was provided in the form of vials of lyophilized PM01183 cake which was reconstituted with water for infusion to a concentration of 0.2 mg/mL. The PM01183 stock solution was further diluted in 5% glucose solution for injection to the dosing formulation concentrations. […] Vinorelbine was provided as a solution prepared by diluting the product with 0.9% saline solution.
# Dose level groups were administered either as single agents or in combination.
# (§7) Comparison of the median tumor volume in the treatment groups (T) to the median tumor volume in the control group (T/C×100%) was used for evaluation of the antitumor efficacy.
# Day 9 for PM01183 and vinorelbine study) using the median-effect principle (Chou T. C. Pharmacol. Rev.
# [10] = system: U87-MG human glioblastoma cell line; experiment: cells; settings: Homo sapiens, U-87 MG, 72 h
# Method: as §2, §3, §4, §5, §1
# U87-MG was the human glioblastoma cell line selected for this assay.
# U87-MG tumors = experiment: Human brain tumor xenografts (U87-MG) in athymic nude mice, tumor volume % T/C; assay type: in vivo
# Method: as §6
# The tumor model used in these studies was U87-MG cell line, which was obtained from the American Type Culture Collection (ATCC HTB-14™).
# U87-MG cells were grown at 37° C. with 5% CO2 in Minimum Essential Medium Eagle (MEME). Each animal was subcutaneously implanted on the right flank, using 26G needle and a 1 cc syringe, with 5×10^6 U87-MG cells, from in vitro passage 5, in 0.05 mL suspension of 50% Matrigel and 50% serum free medium, without antibiotics.
# PM01183 was provided in the form of vials of lyophilized PM01183 cake which was reconstituted with water for infusion to a concentration of 0.2 mg/mL. The PM01183 stock solution was further diluted in 5% glucose solution for injection to the dosing formulation concentrations. Temozolomide was provided as a solution prepared by diluting the product in DMSO 10% in 0.9% saline solution for injection to the target final concentration.
# In these experiments, PM01183 and temozolomide treatments, as well as placebo, were administered as follows: PM01183, intravenously once per week up to 3 consecutive weeks, on Days 0, 7 and 14, temozolomide orally, in a daily basis during 8 consecutive days (Days 0 to 7), and placebo was administered following the same schedule as those provided for PM01183 and temozolomide. Dose level groups were administered either as single agents or in combination.
# as §7
# [11] = A549, 72 hours drug exposure, MTT, read-out: IC50
# [12] = paclitaxel 6.25 mg/kg iv days 0,7
# [13] = paclitaxel 12.5 mg/kg iv days 0,7
# [14] = paclitaxel 18.75 mg/kg iv days 0,7
# [15] = paclitaxel 25 mg/kg iv days 0,7
# [16] = HepG2, 72 hours drug exposure, MTT, read-out: IC50
# [17] = vinorelbine 4.0 mg/kg iv days 0,7
# [18] = vinorelbine 8.0 mg/kg iv days 0,7
# [19] = temozolomide 1.5 mg/kg orally daily days 0 to 7
# [20] = temozolomide 3 mg/kg orally daily days 0 to 7
structure (smiles),measurement,setting,value
"O=NN(CCCl)C(=O)NCCCl [Carmustine, carmustine]",pIC50,[1]; [11],3.00
same,pIC50,[2],3.15
same,pIC50,[3],3.05
"O=P1(N(CCCl)CCCl)NCCCO1 (stereo not shown) [Cyclophosphamide, cyclophosphamide]",pIC50,"[1]; A549, 72 h",3.00
same,pIC50,[4],3.00
same,pIC50,[5],3.00
same,pIC50,[2],3.00
same,pIC50,"[6]; HepG2, 72 h",3.00
same,pIC50,[3],3.00
same,pIC50,[7],3.00
same,pIC50,[8],3.00
"CC(C)C(=O)Nc1ccc([N+](=O)[O-])c(C(F)(F)F)c1 [Flutamide, flutamide]",pIC50,[9],4.31
"CC(=O)O[C@H]1C(=O)[C@@]2(C)[C@H]([C@H](OC(=O)c3ccccc3)[C@]3(O)C[C@H](OC(=O)[C@H](O)[C@@H](NC(=O)c4ccccc4)c4ccccc4)C(C)=C1C3(C)C)[C@]1(OC(C)=O)CO[C@@H]1C[C@@H]2O [Paclitaxel, paclitaxel]",pIC50,"[1]; A549, 72 h",7.40
same,pIC50,[9],7.05
same,pIC50,[5],8.30
same,pIC50,[2],7.02
same,pIC50,"[6]; HepG2, 72 h",7.24
same,pIC50,[3],8.07
same,% T/C on day 0,A2780 tumors; [12],94.3%
same,% T/C on day 3,A2780 tumors; [12],60.2%
same,% T/C on day 5,A2780 tumors; [12],79.7%
same,% T/C on day 7,A2780 tumors; [12],81.3%
same,% T/C on day 10,A2780 tumors; [12],59.2%
same,% T/C on day 0,A2780 tumors; [13],96.2%
same,% T/C on day 3,A2780 tumors; [13],62.5%
same,% T/C on day 5,A2780 tumors; [13],73.9%
same,% T/C on day 7,A2780 tumors; [13],62.5%
same,% T/C on day 10,A2780 tumors; [13],50.8%
same,% T/C on day 0,A2780 tumors; [14],95.0%
same,% T/C on day 3,A2780 tumors; [14],60.4%
same,% T/C on day 7,A2780 tumors; [14],41.5%
same,% T/C on day 10,A2780 tumors; [14],31.1%
same,% T/C on day 0,A2780 tumors; [15],95.3%
same,% T/C on day 3,A2780 tumors; [15],49.3%
same,% T/C on day 7,A2780 tumors; [15],34.0%
same,% T/C on day 10,A2780 tumors; [15],19.8%
"CC[C@]1(O)C[C@H]2CN(CCc3c([nH]c4ccccc34)[C@@](C(=O)OC)(c3cc4c(cc3OC)N(C=O)[C@H]3[C@@](O)(C(=O)OC)[C@H](OC(C)=O)[C@]5(CC)C=CCN6CC[C@]43[C@@H]65)C2)C1 [Vincristine, vincristine]",pIC50,[1]; [11],6.60
same,pIC50,[4],8.07
same,pIC50,[5],7.90
same,pIC50,[2],6.42
same,pIC50,[6]; [16],7.22
same,pIC50,[3],7.30
same,pIC50,[7],7.76
same,pIC50,[10],7.00
"CCC1=C[C@@H]2CN(C1)Cc1c([nH]c3ccccc13)[C@@](C(=O)OC)(c1cc3c(cc1OC)N(C)[C@H]1[C@@](O)(C(=O)OC)[C@H](OC(C)=O)[C@]4(CC)C=CCN5CC[C@]31[C@@H]54)C2 [Vinorelbine, vinorelbine]",pIC50,[4],7.30
same,pIC50,[9],5.00
same,pIC50,[5],7.19
same,pIC50,[2],5.86
same,pIC50,[6]; [16],5.99
same,pIC50,[3],4.92
same,pIC50,[7],5.07
same,pIC50,[8],7.52
same,% T/C on day 0,A2780 tumors; [17],97.2%
same,% T/C on day 2,A2780 tumors; [17],88.6%
same,% T/C on day 5,A2780 tumors; [17],69.3%
same,% T/C on day 7,A2780 tumors; [17],81.7%
same,% T/C on day 9,A2780 tumors; [17],77.3%
same,% T/C on day 0,A2780 tumors; [18],97.6%
same,% T/C on day 2,A2780 tumors; [18],79.5%
same,% T/C on day 5,A2780 tumors; [18],45.0%
same,% T/C on day 7,A2780 tumors; [18],54.2%
same,% T/C on day 9,A2780 tumors; [18],47.9%
"O=C(CCCCCCC(=O)Nc1ccccc1)NO [Vorinostat, vorinostat]",pIC50,[4],5.67
same,pIC50,[2],5.54
Cn1nnc2c(C(N)=O)ncn2c1=O [temozolomide],% T/C on day 0,U87-MG tumors; Temozolomide 1.0 mg/kg,98.2%
same,% T/C on day 2,U87-MG tumors; Temozolomide 1.0 mg/kg,100.2%
same,% T/C on day 4,U87-MG tumors; Temozolomide 1.0 mg/kg,65.1%
same,% T/C on day 7,U87-MG tumors; Temozolomide 1.0 mg/kg,81.2%
same,% T/C on day 9,U87-MG tumors; Temozolomide 1.0 mg/kg,55.0%
same,% T/C on day 11,"U87-MG tumors; Temozolomide 1.0 mg/kg, day 11",63.5%
same,% T/C on day 14,"U87-MG tumors; Temozolomide 1.0 mg/kg, day 14",73.1%
same,% T/C on day 16,"U87-MG tumors; Temozolomide 1.0 mg/kg, day 16",75.0%
same,% T/C on day 0,U87-MG tumors; Temozolomide 1.5 mg/kg,94.1%
same,% T/C on day 2,U87-MG tumors; Temozolomide 1.5 mg/kg,96.9%
same,% T/C on day 4,U87-MG tumors; Temozolomide 1.5 mg/kg,75.6%
same,% T/C on day 7,U87-MG tumors; Temozolomide 1.5 mg/kg,73.0%
same,% T/C on day 9,U87-MG tumors; Temozolomide 1.5 mg/kg,56.5%
same,% T/C on day 11,"U87-MG tumors; Temozolomide 1.5 mg/kg, day 11",59.3%
same,% T/C on day 14,"U87-MG tumors; Temozolomide 1.5 mg/kg, day 14",50.0%
same,% T/C on day 16,"U87-MG tumors; Temozolomide 1.5 mg/kg, day 16",53.5%
same,% T/C on day 0,U87-MG tumors; Temozolomide 3.0 mg/kg,97.1%
same,% T/C on day 2,U87-MG tumors; Temozolomide 3.0 mg/kg,95.5%
same,% T/C on day 4,U87-MG tumors; Temozolomide 3.0 mg/kg,67.3%
same,% T/C on day 7,U87-MG tumors; Temozolomide 3.0 mg/kg,39.4%
same,% T/C on day 9,U87-MG tumors; Temozolomide 3.0 mg/kg,25.3%
same,% T/C on day 11,"U87-MG tumors; Temozolomide 3.0 mg/kg, day 11",22.9%
same,% T/C on day 14,"U87-MG tumors; Temozolomide 3.0 mg/kg, day 14",28.4%
same,% T/C on day 16,"U87-MG tumors; Temozolomide 3.0 mg/kg, day 16",31.5%
same,% T/C on day 11,U87-MG tumors; [19],59.3%
same,% T/C on day 14,U87-MG tumors; [19],50.0%
same,% T/C on day 16,U87-MG tumors; [19],53.5%
same,% T/C on day 11,U87-MG tumors; [20],22.9%
same,% T/C on day 14,U87-MG tumors; [20],28.4%
same,% T/C on day 16,U87-MG tumors; [20],31.5%

# From patent publication US11590129B2, “Combination therapy with an antitumor alkaloid” (PHARMA MAR, S.A., priority 2010, dated 2023)
